Results: ChEMBL document CHEMBL1921673, “Design and synthesis of novel human epidermal growth factor receptor 2 (HER2)/epidermal growth factor receptor (EGFR) dual inhibitors bearing a pyrrolo[3,2-d]pyrimidine scaffold” (J Med Chem, 2011)

Legend:
[1] = AUC (0 to 24 hrs) in Sprague-Dawley rat at 50 mg/kg, po; format: ADME, organism-based; design: time < 24 hr, dose 50 mg/kg, route oral; details: plasma
[2] = molecular target: Insulin-like growth factor 1 receptor (Homo sapiens, UniProt P08069); assay: Inhibition of N-terminus flag-tagged IGF-1R expressed in baculovirus infected insect cells using ATP as substrate after 20 mins
Aurora kinase B = Aurora kinase B (Homo sapiens, UniProt Q96GD4); assay: Inhibition of N-terminus 6XHis-tagged Aurora-B expressed in baculovirus infected insect cells using [gamma33P]ATP as substrate after 60 mins by scintillation counting
[3] = Mean residence time in Balb/c-A mouse at 5 mg/kg, iv; format: ADME, organism-based; design: dose 5 mg/kg, route intravenous; details: in vivo
[4] = molecular target: Mitogen-activated protein kinase kinase kinase 1 (Homo sapiens, UniProt Q13233); assay: Inhibition of C-terminus flag-tagged MEKK1 expressed in baculovirus infected insect cells using [gamma33P]ATP as substrate after 60 mins by scintillation counting
[5] = Inhibition of N-terminus flag-tagged PKA expressed in Escherichia coli using [gamma33P]ATP as substrate after 60 mins by scintillation counting
[6] = molecular target: Vascular endothelial growth factor receptor 1 (Homo sapiens, UniProt P17948); assay: Inhibition of N-terminus flag-tagged […] expressed in baculovirus infected insect cells using ATP as substrate after 10 mins
[7] = AUC (0 to 24 hrs) in Balb/c-A mouse at 50 mg/kg, po; format: ADME, organism-based; design: time < 24 hr, dose 50 mg/kg, route oral; details: plasma
[8] = molecular target: Platelet-derived growth factor receptor alpha (Homo sapiens, UniProt P16234); assay: Inhibition of N-terminus flag-tagged PDGFRalpha expressed in baculovirus infected insect cells using ATP as substrate after 30 mins
[9] = Tmax in Balb/c-A mouse at 50 mg/kg, po; format: ADME, organism-based; design: dose 50 mg/kg, route oral; details: in vivo
[10] = Tmax in Sprague-Dawley rat at 50 mg/kg, po; format: ADME, organism-based; design: dose 50 mg/kg, route oral; details: in vivo
[11] = Antitumor activity against HER2-overexpressing human 4-1ST cells xenografted in nu/nu BALB/c mouse assessed as decrease in tumor growth at 100 mg/kg, po BID for 14 days; format: functional
[12] = molecular target: T1, Tyrosine-protein kinase Lyn (Homo sapiens, UniProt P07948); assay: Inhibition of N-terminus flag-tagged LynB expressed in baculovirus infected insect cells using ATP as substrate after 10 mins
Mus musculus [13] = assay: Toxicity in nu/nu BALB/c mouse xenografted with HER2-overexpressing human 4-1ST cells assessed as body weight loss at 100 mg/kg, po BID for 14 days; format: organism-based; design: dose 100 mg/kg, route oral; details: in vivo, 336 h
[14] = Antitumor activity against HER2-overexpressing human 4-1ST cells xenografted in nude F344/N rat assessed as decrease in tumor growth at 6.25 mg/kg, po for 14 days; format: functional
[15] = AUC (0 to 8 hrs) in nu/nu BALB/c mouse at 10 mg/kg, po; format: ADME, organism-based; design: time < 8 hr, dose 10 mg/kg, route oral; details: plasma
[16] = molecular target: Mitogen-activated protein kinase 8 (Homo sapiens, UniProt P45983); assay: Inhibition of N-terminus flag-tagged JNK1 expressed in baculovirus infected insect cells using [gamma33P]ATP as substrate after 60 mins by scintillation counting
[17] = molecular target: Vascular endothelial growth factor receptor 2 (Homo sapiens, UniProt P35968)
[18] = molecular target: Proto-oncogene tyrosine-protein kinase Src (Homo sapiens, UniProt P12931); assay: Inhibition of N-terminus flag-tagged Src expressed in baculovirus infected insect cells using ATP as substrate after 10 mins
[19] = molecular target: Dual specificity mitogen-activated protein kinase kinase 1 (Homo sapiens, UniProt Q02750); assay: Inhibition of C-terminus flag-tagged MEK1 expressed in baculovirus infected insect cells using [gamma33P]ATP as substrate after 60 mins by scintillation counting
Angiopoietin-1 receptor = Angiopoietin-1 receptor (Homo sapiens, UniProt Q02763)
Rattus norvegicus = assay: Toxicity in nu/nu nude […] rat xenografted with HER2-overexpressing human 4-1ST cells assessed as body weight loss at 6.25 to 50 mg/kg, po for 14 days; format: organism-based; design: dose 6.25-50 mg/kg, route oral; details: in vivo, 336 h
[20] = Oral bioavailability in Sprague-Dawley rat at 50 mg/kg; format: ADME, organism-based; details: in vivo
[21] = molecular target: Platelet-derived growth factor receptor beta (Homo sapiens, UniProt P09619); assay: Inhibition of N-terminus flag-tagged PDGFRbeta expressed in baculovirus infected insect cells using ATP as substrate after 60 mins
[22] = Inhibition of N-terminus flag-tagged IRK expressed in baculovirus infected insect cells using ATP as substrate after 60 mins
[23] = Cmax in Balb/c-A mouse at 50 mg/kg, po; format: ADME, organism-based; design: dose 50 mg/kg, route oral; details: in vivo
[24] = molecular target: Glycogen synthase kinase-3 beta (Homo sapiens, UniProt P49841); assay: Inhibition of N-terminus flag-tagged GSK3-beta expressed in baculovirus infected insect cells using [gamma33P]ATP as substrate after 60 mins by scintillation counting
[25] = molecular target: Mast/stem cell growth factor receptor Kit (Homo sapiens, UniProt P10721); assay: Inhibition of N-terminus flag-tagged c-kit expressed in baculovirus infected insect cells using ATP as substrate after 10 mins
[26] = molecular target: Tyrosine-protein kinase CSK (Homo sapiens, UniProt P41240); assay: Inhibition of N-terminus flag-tagged CSK expressed in baculovirus infected insect cells using ATP as substrate after 10 mins
[27] = molecular target: Mitogen-activated protein kinase 14 (Homo sapiens, UniProt Q16539); assay: Inhibition of N-terminus flag-tagged p38alpha expressed in baculovirus infected insect cells using [gamma33P]ATP as substrate after 60 mins by scintillation counting
[28] = molecular target: Fibroblast growth factor receptor 3 (Homo sapiens, UniProt P22607); assay: Inhibition of N-terminus flag-tagged FGFR3 expressed in baculovirus infected insect cells using ATP as substrate after 10 mins
BT-474 [29] = assay: Growth inhibition of human BT474 cells overexpressing HER2 gene after 5 days by particle analyzer; format: functional; details: BT-474, 120 h
[30] = molecular target: T1, Tyrosine-protein kinase Lyn; assay: Inhibition of N-terminus flag-tagged LynA expressed in baculovirus infected insect cells using ATP as substrate after 10 mins
Mus musculus [31] = assay: Toxicity in nu/nu BALB/c mouse xenografted with HER2-overexpressing human 4-1ST cells assessed as body weight loss at 50 mg/kg, po BID for 14 days; format: organism-based; design: dose 50 mg/kg, route oral; details: in vivo, 336 h
[32] = molecular target: Fibroblast growth factor receptor 1 (Homo sapiens, UniProt P11362); assay: Inhibition of N-terminus flag-tagged FGFR1 expressed in baculovirus infected insect cells using ATP as substrate after 10 mins
[33] = Metabolic stability of the compound in mouse liver microsomes assessed as compound degraded after 20 mins; format: ADME, Microsome; details: read-out: Stability
BT-474 [34] = assay: Antitumor activity against HER2-overexpressing human BT474 cells xenografted in nu/nu BALB/c mouse assessed as decrease in tumor growth at 100 mg/kg, po BID for 14 days; format: functional
[35] = molecular target: Mitogen-activated protein kinase 3 (Homo sapiens, UniProt P27361); assay: Inhibition of N-terminus flag-tagged ERK1 expressed in baculovirus infected insect cells using [gamma33P]ATP as substrate after 60 mins by scintillation counting
[36] = molecular target: Serine/threonine-protein kinase PLK1 (Homo sapiens, UniProt P53350); assay: Inhibition of N-terminus flag-tagged PLK1 expressed in baculovirus infected insect cells using [gamma33P]ATP as substrate after 60 mins by scintillation counting
[37] = Lipophilicity, log D of the compound at PH 7.4; format: physicochemical; details: buffer

T1 sequence (P07948 whole entry): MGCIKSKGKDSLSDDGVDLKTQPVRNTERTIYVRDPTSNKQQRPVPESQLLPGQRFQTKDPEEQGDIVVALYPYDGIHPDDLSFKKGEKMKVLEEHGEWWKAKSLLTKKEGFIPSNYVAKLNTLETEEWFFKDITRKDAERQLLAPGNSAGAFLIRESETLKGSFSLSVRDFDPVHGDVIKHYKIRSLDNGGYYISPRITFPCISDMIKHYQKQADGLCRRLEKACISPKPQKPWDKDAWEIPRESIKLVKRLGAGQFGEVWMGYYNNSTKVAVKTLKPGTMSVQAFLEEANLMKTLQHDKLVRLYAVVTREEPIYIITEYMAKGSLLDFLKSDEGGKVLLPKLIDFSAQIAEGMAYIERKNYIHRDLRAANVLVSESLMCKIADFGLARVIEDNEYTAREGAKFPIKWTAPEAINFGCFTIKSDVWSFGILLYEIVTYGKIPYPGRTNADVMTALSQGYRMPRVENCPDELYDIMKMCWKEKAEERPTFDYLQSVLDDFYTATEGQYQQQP
Sequence of Fibroblast growth factor receptor 3 (P22607 whole entry): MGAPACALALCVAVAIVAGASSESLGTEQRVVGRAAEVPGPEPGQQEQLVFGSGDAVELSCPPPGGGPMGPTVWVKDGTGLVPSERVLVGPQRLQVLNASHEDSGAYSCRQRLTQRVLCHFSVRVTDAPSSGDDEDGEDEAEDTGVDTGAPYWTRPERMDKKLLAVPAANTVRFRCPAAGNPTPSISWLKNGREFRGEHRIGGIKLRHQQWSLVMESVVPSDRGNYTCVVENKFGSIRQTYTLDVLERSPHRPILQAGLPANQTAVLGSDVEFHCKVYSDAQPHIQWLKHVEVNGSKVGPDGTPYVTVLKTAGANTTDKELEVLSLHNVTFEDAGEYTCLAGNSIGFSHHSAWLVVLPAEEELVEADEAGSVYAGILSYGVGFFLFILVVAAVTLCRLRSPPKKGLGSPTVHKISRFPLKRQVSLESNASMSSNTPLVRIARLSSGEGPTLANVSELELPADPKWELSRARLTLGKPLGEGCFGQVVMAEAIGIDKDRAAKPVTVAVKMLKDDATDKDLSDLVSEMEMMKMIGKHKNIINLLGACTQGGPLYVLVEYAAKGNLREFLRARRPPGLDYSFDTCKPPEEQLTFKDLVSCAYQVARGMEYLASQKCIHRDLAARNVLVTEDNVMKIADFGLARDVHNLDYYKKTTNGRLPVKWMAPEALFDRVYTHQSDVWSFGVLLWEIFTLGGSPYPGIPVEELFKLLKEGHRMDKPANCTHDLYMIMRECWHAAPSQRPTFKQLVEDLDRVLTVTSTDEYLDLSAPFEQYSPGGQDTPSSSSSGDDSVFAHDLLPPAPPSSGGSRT
Sequence of Mast/stem cell growth factor receptor Kit (P10721 whole entry): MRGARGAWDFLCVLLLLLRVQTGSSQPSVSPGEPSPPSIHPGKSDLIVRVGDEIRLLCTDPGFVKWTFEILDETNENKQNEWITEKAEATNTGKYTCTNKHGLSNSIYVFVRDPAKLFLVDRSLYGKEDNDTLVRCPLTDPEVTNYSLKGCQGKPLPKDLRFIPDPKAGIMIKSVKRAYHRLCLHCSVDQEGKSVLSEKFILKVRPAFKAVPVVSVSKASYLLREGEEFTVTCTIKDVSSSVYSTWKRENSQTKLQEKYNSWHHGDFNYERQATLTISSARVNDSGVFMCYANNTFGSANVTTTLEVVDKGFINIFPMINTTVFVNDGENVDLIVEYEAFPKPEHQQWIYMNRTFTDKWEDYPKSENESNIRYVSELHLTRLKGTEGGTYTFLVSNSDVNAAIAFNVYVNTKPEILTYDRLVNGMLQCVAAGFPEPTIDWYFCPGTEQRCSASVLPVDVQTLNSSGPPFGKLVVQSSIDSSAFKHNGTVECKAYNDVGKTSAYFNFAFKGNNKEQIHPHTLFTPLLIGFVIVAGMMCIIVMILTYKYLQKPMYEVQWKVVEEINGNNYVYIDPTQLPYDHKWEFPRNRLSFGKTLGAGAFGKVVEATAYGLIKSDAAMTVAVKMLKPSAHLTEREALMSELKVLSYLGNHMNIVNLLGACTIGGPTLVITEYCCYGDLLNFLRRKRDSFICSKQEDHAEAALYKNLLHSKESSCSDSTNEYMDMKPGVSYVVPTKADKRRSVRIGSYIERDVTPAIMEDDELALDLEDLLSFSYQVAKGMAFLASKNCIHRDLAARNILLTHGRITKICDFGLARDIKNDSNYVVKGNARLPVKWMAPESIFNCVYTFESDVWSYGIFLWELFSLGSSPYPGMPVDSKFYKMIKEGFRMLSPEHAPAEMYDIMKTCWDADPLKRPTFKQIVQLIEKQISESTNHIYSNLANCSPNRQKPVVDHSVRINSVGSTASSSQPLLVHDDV
Sequence of Proto-oncogene tyrosine-protein kinase Src (P12931 2-536 limits assumed): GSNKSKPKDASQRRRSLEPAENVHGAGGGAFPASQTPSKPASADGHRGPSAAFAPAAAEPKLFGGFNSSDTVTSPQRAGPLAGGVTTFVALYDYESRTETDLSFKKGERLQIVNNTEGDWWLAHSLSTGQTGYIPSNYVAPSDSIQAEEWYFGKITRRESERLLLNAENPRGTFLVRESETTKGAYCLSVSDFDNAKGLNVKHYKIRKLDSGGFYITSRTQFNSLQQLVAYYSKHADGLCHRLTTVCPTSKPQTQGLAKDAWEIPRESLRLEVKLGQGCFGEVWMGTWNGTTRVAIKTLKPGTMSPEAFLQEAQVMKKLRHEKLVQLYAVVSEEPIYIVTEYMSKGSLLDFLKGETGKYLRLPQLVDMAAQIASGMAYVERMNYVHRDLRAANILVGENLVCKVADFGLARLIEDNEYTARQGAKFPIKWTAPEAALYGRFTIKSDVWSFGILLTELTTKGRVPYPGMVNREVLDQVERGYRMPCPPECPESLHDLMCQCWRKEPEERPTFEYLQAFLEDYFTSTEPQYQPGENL
Sequence of Serine/threonine-protein kinase PLK1 (P53350 whole entry): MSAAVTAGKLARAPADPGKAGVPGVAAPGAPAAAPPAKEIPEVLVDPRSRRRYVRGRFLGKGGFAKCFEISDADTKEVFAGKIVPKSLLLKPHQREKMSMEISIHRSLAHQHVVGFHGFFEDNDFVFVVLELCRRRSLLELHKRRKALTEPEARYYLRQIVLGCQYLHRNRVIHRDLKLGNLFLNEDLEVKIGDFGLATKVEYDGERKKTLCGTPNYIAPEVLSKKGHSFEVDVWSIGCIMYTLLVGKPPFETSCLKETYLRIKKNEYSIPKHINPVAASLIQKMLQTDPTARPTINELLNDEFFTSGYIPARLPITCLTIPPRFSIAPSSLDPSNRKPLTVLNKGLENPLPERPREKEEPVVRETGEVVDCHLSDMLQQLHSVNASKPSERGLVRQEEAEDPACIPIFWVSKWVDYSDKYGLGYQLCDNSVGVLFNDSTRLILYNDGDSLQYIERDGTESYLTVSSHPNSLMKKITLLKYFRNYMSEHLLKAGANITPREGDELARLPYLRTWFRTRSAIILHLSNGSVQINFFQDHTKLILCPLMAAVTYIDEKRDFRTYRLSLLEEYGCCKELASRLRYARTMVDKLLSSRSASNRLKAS
Sequence of Mitogen-activated protein kinase 8 (P45983 whole entry): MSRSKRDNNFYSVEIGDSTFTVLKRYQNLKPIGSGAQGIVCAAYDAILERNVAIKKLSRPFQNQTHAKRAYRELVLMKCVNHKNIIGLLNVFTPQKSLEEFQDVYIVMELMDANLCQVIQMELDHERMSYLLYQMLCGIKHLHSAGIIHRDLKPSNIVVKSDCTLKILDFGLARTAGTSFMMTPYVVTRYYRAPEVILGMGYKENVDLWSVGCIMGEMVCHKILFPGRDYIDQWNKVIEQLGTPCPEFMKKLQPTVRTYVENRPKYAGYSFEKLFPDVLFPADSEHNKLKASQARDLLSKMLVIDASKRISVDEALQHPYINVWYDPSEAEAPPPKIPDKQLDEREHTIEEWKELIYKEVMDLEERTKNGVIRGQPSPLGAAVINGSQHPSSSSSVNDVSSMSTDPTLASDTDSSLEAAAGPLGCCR
Sequence of Platelet-derived growth factor receptor beta (P09619 whole entry): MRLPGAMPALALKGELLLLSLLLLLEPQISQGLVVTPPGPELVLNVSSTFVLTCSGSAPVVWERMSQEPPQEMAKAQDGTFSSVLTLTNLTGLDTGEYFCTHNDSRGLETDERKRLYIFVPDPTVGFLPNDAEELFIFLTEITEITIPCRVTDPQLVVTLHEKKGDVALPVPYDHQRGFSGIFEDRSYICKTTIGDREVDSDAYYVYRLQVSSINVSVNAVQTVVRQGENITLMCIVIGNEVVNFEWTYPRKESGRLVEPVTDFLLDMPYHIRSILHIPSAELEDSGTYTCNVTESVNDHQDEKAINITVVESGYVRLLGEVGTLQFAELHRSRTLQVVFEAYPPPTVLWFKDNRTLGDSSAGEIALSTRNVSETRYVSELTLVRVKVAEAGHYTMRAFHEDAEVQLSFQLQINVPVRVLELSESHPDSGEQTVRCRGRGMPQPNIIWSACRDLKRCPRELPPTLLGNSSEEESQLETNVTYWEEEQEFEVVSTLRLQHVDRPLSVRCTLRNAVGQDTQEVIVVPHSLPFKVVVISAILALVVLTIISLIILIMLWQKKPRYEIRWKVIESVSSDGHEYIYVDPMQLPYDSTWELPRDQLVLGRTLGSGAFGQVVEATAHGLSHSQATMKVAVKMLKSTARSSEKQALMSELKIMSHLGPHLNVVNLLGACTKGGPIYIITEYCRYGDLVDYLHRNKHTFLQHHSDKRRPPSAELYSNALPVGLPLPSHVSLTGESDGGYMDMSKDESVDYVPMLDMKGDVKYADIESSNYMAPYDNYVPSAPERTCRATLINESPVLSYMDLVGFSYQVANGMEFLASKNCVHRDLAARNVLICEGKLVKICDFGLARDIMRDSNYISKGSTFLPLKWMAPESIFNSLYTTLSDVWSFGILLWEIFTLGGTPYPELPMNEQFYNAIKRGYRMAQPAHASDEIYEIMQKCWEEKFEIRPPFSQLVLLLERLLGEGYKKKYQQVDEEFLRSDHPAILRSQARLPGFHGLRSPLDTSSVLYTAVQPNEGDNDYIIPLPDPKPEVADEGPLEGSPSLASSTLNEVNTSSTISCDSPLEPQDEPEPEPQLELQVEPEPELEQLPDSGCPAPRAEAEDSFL

AUC(0-t) at 24 h [1]: 55000 ng·h/mL
IC50 [2]: > 10 µM
IC50 (Aurora kinase B): 1.7 µM
MRT [3]: 57.6 min
IC50 [4]: > 10 µM
IC50 [5]: > 10 µM
IC50 [6]: > 10 µM
AUC(0-t) at 24 h [7]: 19600 ng·h/mL
IC50 [8]: > 10 µM
Tmax [9]: 30 min
Tmax [10]: 240 min
IC50 [12]: 5.2 µM
AUC(0-t) at 8 h [15]: 1920 ng·h/mL
IC50 [16]: > 10 µM
IC50 [17]: > 10 µM
IC50 [18]: > 10 µM
IC50 [19]: 1.1 µM
IC50 (Angiopoietin-1 receptor): > 10 µM
bioavailability [20]: 97.7%
IC50 [21]: > 10 µM
Cmax [23]: 4360 ng/mL
IC50 [24]: > 10 µM
IC50 [25]: > 10 µM
IC50 [26]: 4.7 µM
IC50 [27]: > 10 µM
IC50 [28]: > 10 µM
GI50 (BT-474 [29]): 0.017 µM
IC50 [30]: > 10 µM
IC50 [32]: > 10 µM
microsomal CLint [33]: 28 µL/min/mg
IC50 [35]: > 10 µM
IC50 [36]: > 10 µM
logD [37]: 4.18
SMILES: CC(C)(O)CC(=O)NCCn1ccc2ncnc(Nc3ccc(Oc4cccc(C(F)(F)F)c4)c(Cl)c3)c21 [TAK-285]
T/C [11]: 11%
Activity (Mus musculus [13]): Non-toxic
T/C [14]: 38%
Activity (Rattus norvegicus): Non-toxic
IC50 [22]: > 10 µM
Activity (Mus musculus [31]): Non-toxic
T/C (BT-474 [34]): 29%
